Experimental data taken from patent publication US20250304571A1, “BIOLOGICALLY ACTIVE COMPOUNDS AND METHODS THEREOF” (Suzhou Keen Therapeutics Co., Ltd., priority 2022, published 2025).
Read-outs that look alike come from different tables or passages of the source.

Experiments:
[1] = tested on: KP4 (pancreatic ductal adenocarcinoma) cells; assay: Cell viability (CellTiter Glo) assay, inhibition of KP4 cell proliferation; format: cell-based; details: Homo sapiens, KP-4; KP4 cells, 72 hours, CellTiter Glo; read-out: IC50, inhibition of KP4 cell proliferation
[2] = tested on: HT-1080 (fibrosarcoma) cells; assay: Cell viability (CellTiter Glo) assay, inhibition of HT-1080 cell proliferation; format: cell-based; details: Homo sapiens, HT-1080 cells, 72 hours
[3] = tested on: 786-O (renal cell carcinoma) cells; assay: Cell viability (CellTiter Glo) assay, inhibition of 786-O cell proliferation; format: cell-based; details: Homo sapiens, 786-0; 786-O cells, 72 hours, CellTiter Glo; read-out: IC50, inhibition of 786-O cell proliferation
786-O cells = assay: Anti-proliferation activity in 786-O cells in the presence of a ferroptosis inhibitor (Ferrostatin-1 or Liproxstatin-1); format: cell-based; details: Homo sapiens
Description: In one assessment, cells (KP4, 786-0 and HT-1080) were seeded (700 cells/well, 1000 cells/well or 3000 cells/well) in 384-well or 96-well plates and incubated at 37° C./5% CO2 for 22-24 hours. A series of 8 different concentrations of compound stocks were created by 5-fold serial dilution in DMSO. These compounds were further diluted in culture media and were then added to cells (final concentrations: 100 μM, 20 μM, 4 μM, 0.8 μM, 0.16 μM, […].). After 72 hours of incubation, 30 μL of CellTiter Glo reagent (Promega) was added to each well and luminescence was measured after 10 minutes using SpectraMax M5/M5e (Molecular Devices). Luminescence from cells treated with DMSO alone was set as background and % of inhibition was calculated as follows: […]
Anti-proliferation activity of various compounds was also tested in the presence of an ferroptosis inhibitor, Ferrostatin-1 (2 μM) or Liproxstatin-1 (2 μM). Certain results are provided in Table 4 and Table 5 as examples. “A” indicates an IC50≤100 nM; “B” indicates an IC50 of >100 nM and ≤500 nM; “C” indicates an IC50>500 nM and ≤5 μM; and “D” indicates an IC50>5 μM.

[4] = Whole blood stability, human; format: in vitro ADME; details: 37° C.; for % Remaining: 1 μM; for half-life at 1 μM: fresh whole blood
[5] = Whole blood stability, mouse; format: in vitro ADME; details: 37° C.; for % Remaining: 1 μM; for half-life at 1 μM: male, Balb/c, fresh whole blood
Description: For example, in some embodiments, provided compounds have suitable stability profiles for various applications including therapeutic uses. Various technologies are available in the art for assessing properties, e.g., stability, of compounds and compositions, and can be utilized in accordance with the present disclosure. Certain useful technologies are described herein as examples. In some embodiments, stability was assessed in fresh blood samples, e.g., of human or mouse.
In some embodiments, fresh blood samples were collected from male Balb/c mouse with EDTA-K2 as anti-coagulant. Blood was collected before experiment and stored at 2˜8° C., and equilibrated to room temperature before use. Compounds were dissolved in DMSO at 10 mM concentration. Glibenclamide, used as an internal standard (1S), was prepared in DMSO at 1 mg/mL concentration. An aliquot of 594 μL of blank blood was spiked with 6 μL of working solution (100 μM) to achieve 1 μM of final concentration for test compounds. Solution samples were incubated for 0, 10, 30, 60, 90 and 120 minutes at 37° C., e.g., in a water bath.
An Agilent ZORBAX XDB-C18 (3.5 μm, 50×2.1 mm) was used for HPLC analysis. Mobile phases were 0.1% formic acid in water (mobile phase A), and 0.1% formic acid in acetonitrile (mobile phase B). The injection volume was 10 μL. Mass spectrometer was calibrated and tuned for each test compound. The % remaining of test compound in blood was calculated using the following equation: […]

[6] = 786-0, 72 h, no ferroptosis inhibitor, read-out: IC50, No Ferroptosis Inhibitor (Table 5)

| Structure (SMILES) | IC50 [1] [nM] | IC50 [2] [nM] | IC50 [3] [nM] | IC50 (786-O cells; [6]) [nM] | further results |
| --- | --- | --- | --- | --- | --- |
| C[C@@H]1CN(C(=N)OCc2nc(Nc3ccc(Oc4ccccc4)cc3)c3cc[nH]c3n2)C[C@H](C)N1C(=O)OC(C)(C)C [Compound D2] | < 100 | 100 to 500 | – | – | – |
| CN(C)C(=N)OCc1nc(Nc2ccc(Oc3ccccc3)cc2)c2cc[nH]c2n1 [Compound D3] | 500 to 5000 | 500 to 5000 | 500 to 5000 | – | – |
| CC1(C)CN(c2ccc(Oc3ccccc3)cc2)c2nc(COC(=N)N3CCC(F)(F)CC3)nc(N)c21 [Compound E2] | – | < 100 | < 100 | < 100 | % Remaining ([4]; @ 240 min): 69.7% @ 240 min; half-life at 1 μM [4]: 7.85 h; % Remaining ([5]; @ 240 min): 63.9% @ 240 min; half-life at 1 μM [5]: 6.47 h |
| CCN1CCN(C(=N)OCc2nc(N)c3c(n2)N(c2ccc(Oc4ccccc4)cc2)CC3(C)C)C2(CC2)C1=O [Compound E5] | – | 100 to 500 | 100 to 500 | – | – |
| N=C(OCc1nc(N)nc(Nc2ccc(Oc3ccccc3)cc2)n1)N1CCOCC1 [Compound F6] | < 100 | < 100 | 100 to 500 | – | % Remaining ([4]; @ 120 min): 84% @ 120 min; half-life at 1 μM [4]: 6.07 h; % Remaining ([5]; @ 120 min): 78% @ 120 min; half-life at 1 μM [5]: 5.65 h |
| N=C(NC1CCCCC1)OCc1nc(N)nc(Nc2ccc(Oc3ccccc3)cc2)n1 [Compound F9] | 100 to 500 | 100 to 500 | < 100 | – | – |
| N=C(OCc1nc(N)nc(Nc2ccc(Oc3ccccc3)cc2)n1)N1CCC(F)(F)CC1 [Compound F13] | < 100 | < 100 | < 100 | – | IC50 (786-O cells; 786-0, Ferrostatin-1 (2 μM), read-out: IC50, With Ferrostatin-1): > 5000 nM; IC50 (786-O cells; 786-0, no ferroptosis inhibitor, read-out: IC50, No Ferroptosis Inhibitor (Table 4)): < 100 nM; % Remaining ([4]; @ 240 min): 57.6% @ 240 min; half-life at 1 μM [4]: 5.35 h; % Remaining ([5]; @ 240 min): 74% @ 240 min; half-life at 1 μM [5]: 7.95 h |
| CCN1CCN(C(=N)OCc2nc(N)nc(Nc3ccc(Oc4ccccc4)cc3)n2)C2(CC2)C1=O [Compound F19] | – | 500 to 5000 | 100 to 500 | 100 to 500 | – |
| N=C(NC12CC3CC(CC(C3)C1)C2)OCc1nc(N)nc(Nc2ccc(Oc3ccccc3)cc2)n1 [Compound F20] | – | 100 to 500 | 100 to 500 | 100 to 500 | – |
| CN(C(=N)OCc1nc(N)nc(Nc2ccc(Oc3ccccc3)cc2)n1)C1CCCCC1 [Compound F22] | – | 100 to 500 | < 100 | < 100 | – |
| CN(C)C(=N)OCc1nc(N)nc(Nc2ccc(Oc3ccccc3)cc2)n1 [Compound F31] | 100 to 500 | 100 to 500 | 100 to 500 | – | – |
